In patent US12497359B2, “Acrylamide derivatives” (NRG Therapeutics Ltd, priority 2020, dated 2025):
In brackets after ≈: the same amount, converted by molar mass.

Key:
mPTP [1] = assay: mPTP human platelet mitochondria membrane potential flow cytometry assay; format: cell-based; details: stimulated human platelets
Procedure: The mPTP cell based assay was performed using a mitochondria membrane potential flow cytometry assay in stimulated human platelets. Simulation of platelets results in the rapid influx of Ca^2+ across the platelet membrane. The Ca^2+ is then sequestered by mitochondria until the threshold for mPTP opening is reached, at which point the pore opens and the mitochondrial membrane potential is dissipated. Changes in mitochondria membrane potential due to mPTP opening can be quantified in live platelets using standard mitochondrial membrane potential dyes e.g. 3,3′-dihexyloxacarbocyanine Iodide; DiOC6 (3), enabling pharmacological characterisation of mPTP inhibitors.
Fresh human blood (20 ml) was collected from consented donors into 3.2% sodium citrate. Platelets were isolated by centrifugation at 200 g for 20 min at room temperature, then the platelet rich plasma layer transferred to a fresh tube. Prostaglandin 12 is added to the platelets at a final concentration of 20 ng/ml. After centrifugation at 640 g for 10 min, the platelet rich pellet was resuspended in 4 ml HEPES assay buffer (137 mM NaCl, 2.7 mM KCl, 11.9 mM NaHCO3, 0.42 mM NaH2PO4, 1 mM MgCl2, 5.5 mM glucose, 0.1% bovine serum albumin, 10 mM HEPES adjusted to pH 7.4) and stored on ice.
Test compounds were prepared from 10 mM stocks in DMSO and serially diluted in assay buffer containing 0.4% DMSO and 25 μl transferred into a 96 well plate. Platelets were loaded with the mitochondrial membrane potential dye DiOC6 (3) (3,3′-dihexyloxacarbocyanine Iodide; Invitrogen) at 200 nM for 30 min, then 50 μl plated into each well of the 96 well plate containing diluted test compound and incubated for 15 min. Control wells included DMSO (0.1% final concentration) only or 5 μM cyclosporin A. Platelets were then stimulation with the addition of assay buffer (25 μl) containing CaCl2, alpha thrombin and Convulxin to achieve a final concentrations of 2 mM, 0.017 U/ml and 0.167 μg/ml respectively and incubated for 14 min. The reaction was stopped by the addition of 25 μl 15 mM EDTA in assay buffer. The mitochondrial membrane potential across the population of platelets in each well was then quantified by flow cytometry using a Guava easyCyte 5 Benchtop Flow Cytometer with 3000 events per well. The percentage of platelets with a depolarised mitochondrial membrane potential was calculated for each well. A pIC50 for each compound was then calculated using a standard four parameter curve fit model (GraphPad Prism).

mPTP [2] = assay: mPTP activity assay in isolated rat liver mitochondria (Ca2+ retention, Fluo5N, FLIPR); format: biochemical; details: isolated rat liver mitochondria; average value from multiple experiments (n ≥ 2)
Outline: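 Freshly isolated female Sprague Dawley rat liver mitochondria in pH 7.4 buffer with 10 mM succinate, 1 μM rotenone and 2 μM Fluo5N, preincubated 10 min at RT with compound (30 μM to 1 nM). CaCl2 bolus (75 μM) added; IC50 from 10 min fluorescence, normalised to DMSO and 5 μM cyclosporin A.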

mPTP [3] = assay: mPTP activity assay in isolated rat brain mitochondria; format: biochemical; details: isolated rat brain mitochondria
Procedure: MPTP activity was measured in brain mitochondria freshly isolated from female Sprague Dawley (250 to 300 gram) rats. Anaesthetised rats were perfused in-situ with ˜40 ml cold Dulbecco's Phosphate Buffered Saline (DPBS), then brains dissected and transferred into 30 ml Isolation Buffer (225 mM mannitol, 75 mM sucrose, 1 mM EGTA, adjusted to pH 7.4 with 1 M NaOH). The brain was minced using tweezers and a scalpel into ˜5 mm pieces then transferred into a 50 ml Potterton Dounce homogenization tube on ice containing 10 ml ice-cold isolation buffer (as above with addition of Complete Protease inhibitor; 1 tablet per 50 ml buffer). Homogenisation was carried out using a teflon pestle at 1800 rpm. The slurry was centrifuged at 2000 g for 10 min at 4° C., then the supernatant centrifuged at 12,000 g for 9 min. The pellet was resuspended with a dounce homogeniser in isolation buffer as above but with the addition of 0.02% digitonin, centrifuged at 12,000 g for 11 min and finally resuspended in 5 ml modified isolation buffer (as above but with EGTA reduced to 0.1 mM).
Test compounds were prepared in 384 well polypropylene assay plates as described above for the liver mitochondria assay. A stock mitochondria/Fluo5N assay solution was prepared in 5.6 ml assay buffer (120 mM mannitol, 40 mM MOPS, 5 mM KH2PO4, 60 mM KCl, 10 mM pyruvate, 2 mM malate, 2 mM MgCl2, 20 μM ADP, 1.26 μM oligomycin A, adjusted to pH 7.4) supplemented with Fluo5N pentapotassium salt (2 μM) and 1 ml mitochondria suspension, then transferred (15 μl) into the assay plate containing test compounds and incubated for 10 min at RT. Assay plates were then transferred to a FLIPR Tetra plate reader (Molecular Devices). Dye fluorescence was then measured every 3 sec for a total of 10 min. After 12 sec, a 2.5 μl bolus of Ca2+(75 μM) was added from a source plate containing 675 μM CaCl2 in FLIPR assay buffer. IC50 values for test compounds were calculated using the fluorescence value collected at the 10 min timepoint with % inhibition calculated using the DMSO control and cyclosporin A values at […].

PBS solubility = format: physicochemical; details: aqueous buffer, kinetic from dmso stock; PBS pH 7.4, 2 hr at 25° C.
Outline: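 Compound from 10 mM DMSO stock was added in duplicate to FaSSIF or PBS (pH 7.4) and shaken at 1100 rpm for 2 hr at 25 °C. After filtration, the filtrate was quantified by LC-MS/MS with internal standard against a standard of known concentration.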

[4] = Microsomal clearance assay, rat liver microsomes; format: in vitro ADME; details: average value from two experiments, read-out: Rat liver microsomes intrinsic clearance (CLint)
Procedure: The microsomal stability of test compounds was evaluated using rat liver microsomes (BioIVT) with and without the cofactors nicotinamide adenine dinucleotide phosphate (NADPH) and uridine-diphosphate-glucuronic acid (UDPGA). Reactions were performed in a final volume of 250 μl pre-warmed (37° C.) 100 mM phosphate buffer containing 5 mM MgCl2, 0.025 mg/ml alamethicin, and 0.5 mg/ml rat liver microsomes. NADPH and UDPGA were included at 1 mM and 2 mM respectively, where appropriate. Reactions were started with the addition of 1 μM (final concentration) test compound. Verapamil was used as the positive control. Solutions were incubated in a water bath at 37° C. and aliquots collected at 0.5, 5, 15, 30 and 60 min. Reactions were stopped by the addition of 5 volumes of cold acetonitrile with internal standards (200 nM caffeine and 100 nM tolbutamide). Samples were centrifuged at 3220 g for 40 min. An aliquot of supernatant was diluted 1:1 In ultra-pure H20, then used for LC-MS/MS analysis. Peak areas were determined from extracted ion chromatograms. The slope value, k, was determined by linear regression of the natural logarithm of the remaining percentage of the parent drug vs. incubation time curve. The in vitro half-life (in vitro t1/2) was determined from the slope value: in vitro t1/2=0.693/k. Conversion of the in vitro t1/2 (min) into the in vitro intrinsic clearance (in vitro CLint, in μL/min/mg protein) was done using the following equation (mean of duplicate determinations): in vitro Clint=(0.693/t1/2)*(Vol of incubation (μl)/amount of protein (mg)).

SMILES	mPTP Human platelets pIC50 (mPTP [1])	mPTP Rat liver pIC50* (mPTP [2])	mPTP Rat brain pIC50 (mPTP [3])	solubility at 2 h (PBS solubility)	microsomal CLint at 1 µM [4]
Cc1c(F)cccc1NC(=O)/C=C/c1ccc2cn[nH]c2c1 [Comparative Example 1, (E)-N-(2-methyl-3-fluorophenyl)-3-(1H-indazol-6-yl)acrylamide, reference compound]	6.9	8.0	7.6		
O=C(/C=C/c1ccc2cn[nH]c2c1)NC1CCc2ccc(F)cc21 (stereo not shown) [Example 6, (E)-N-(6-fluoro-2,3-dihydro-1H-inden-1-yl)-3-(1H-indazol-6-yl)acrylamide]	4.9	6.0		9.1 µM (≈ 2.92 µg/mL)	59 µL/min/mg
